Usually melting point stands for the temperature, or range, at which the solid turns liquid. `CCOC(=O)c1c(-c2ccc(F)cc2)c2ccsc2c(=O)n1C` displayed a melting point of 145 to 147 °C.

In turn, `Nc1nccc(CCc2ccc3c(C(=O)Nc4cccc(C(F)(F)F)c4)cccc3c2)n1` returned a melting point of 225 to 227 °C.

Consider `CN1CCC(OC(c2cccc(N)c2)c2nc3ccccc3[nH]2)CC1` (centres undefined), for which the melting point worked out at 100 °C.

`CCc1ccc(N/C=C/[N+](=O)[O-])c(C(=O)O)c1` displayed a melting point of 190 to 191 °C.

In the case of `COc1cc(OC)c([N+](=O)[O-])c(OC)c1NC(=O)OCCCl`, the melting point worked out at 133 °C.

For `O=C1Nc2cc(CN3CCC(c4ccccc4)CC3)ccc2OC1F` (centres undefined), the melting point is 217 to 221 °C.

In turn, `O=S(=O)(C(=Cc1ccc(Cl)cc1)SC(=Cc1ccc(Cl)cc1)S(=O)(=O)c1ccccc1)c1ccccc1` gave a melting point of 251 °C.

The compound `C=CCSc1nc(=O)n(C(=O)NC)s1` returned a melting point of 110 °C.

The compound `COc1ccc(CNC(=O)c2[nH]c3ccc(Cl)cc3c2S(=O)(=O)c2ccccc2)cc1` displayed a melting point of 205 to 206 °C.

As to `O=C(NCc1cn(-c2ccc(N3CCOCC3)c(F)c2)nn1)C(Cl)Cl`, the melting point was determined as 190 °C.

Take `COC(=O)c1cc2ccncc2c2sc3ccccc3c12`: the melting point lay within 174 to 176 °C.

In turn, `Brc1nc(-c2cccnc2)[nH]c1Br` returned a melting point of 226 to 227 °C.

`CCCN(c1nc(-c2ccc(OC)cc2Cl)c(C)s1)c1cc(N)ccc1OC` had a melting point of 89 °C.

`COc1ccc(-c2cc(COS(C)(=O)=O)c(=O)n(CC3CCCC3)n2)cc1F` displayed a melting point of 108 to 116 °C.

`O=C(CCC1CCCCC1)NC1N=C(c2ccccc2)c2ccccc2N2CCN=C12` (centres undefined) registered a melting point of 202 to 208 °C.

`CCn1cc(-c2ccccc2)c(=O)c(-c2cccc(C)c2)c1` showed a melting point of 87 to 89 °C.

The compound `CCOC(=O)c1cnc2c(O)cccc2c1` gave a melting point of 118 °C.

On to `CCCOc1ccc(S(=O)(=O)N2CCN(CC)CC2)cc1-c1nc2cc3ncn(Cc4cccc(OC)c4)c3cc2c(=O)[nH]1`, for which the melting point is 117 to 118 °C.

With `C[C@H]1N(C(=O)c2ccc(C(F)(F)F)cc2)CC(O)O[C@@]1(Cn1cncn1)c1ccc(Cl)cc1Cl` (relative stereo), the melting point is 199 to 200 °C.

`CCCn1nc2oc(=O)cc(C)c2c1C` had a melting point of 108 to 110 °C.

In the case of `CCCCC(=O)/C=C/c1ccccc1`, the melting point lay in the range of 32 to 32.5 °C.

`CCCCCCCCCCCCOC(C)c1ccc(-c2ccc(C(=O)O)cc2)cc1` (single isomer, unassigned; (+)) came in with a melting point of 70.5 °C.

`COc1ccc(-c2nn(Cc3ccccc3)c(=O)cc2-c2ccc(OC)c(F)c2)cc1` came in with a melting point of 110 to 112 °C.

`CC1CCNC(=C2C(=O)CC(C)(C)CC2=O)C1` (centres undefined): the melting point came to 174 °C.

Turning to `COc1cc(-c2ccccc2)c(C)cc1CC(=O)O`, the melting point is 127 to 128 °C.

For the compound `CC(=O)c1ccc(-c2ccc(F)cc2F)c(N)c1`, the melting point lay in the range of 93 to 95 °C.

In turn, `C#CCc1c(C)nc2c(OCc3ccccc3C)nccn12` had a melting point of 123 to 124 °C.

`COC(=O)[C@]1(F)[C@@H]2[C@H]1C(=O)C[C@H]2O[Si](C)(C)C(C)(C)C` displayed a melting point of 70 to 71 °C.

Take `CCS(=O)(=O)Nc1ccc(S(=O)(=O)C=CC#N)cc1`: the melting point was 177 to 180 °C.

With `CC(C)(C)C(O)(Cn1cncn1)C(Cl)=CBr` (centres undefined), the melting point was 45 to 48 °C.

For `CC(C)(C)c1ccc(CC(=O)CCCC2CCCCC2)cc1NC(=O)CC1c2ccccc2Oc2ccccc21`, the melting point was 146 to 147 °C.

The compound `COc1ccc(C#N)cc1C(=O)NCCN1CCC(C(=O)c2ccc(F)cc2)CC1` registered a melting point of 167 to 169 °C.

`COC1(OC)CCN(Cc2ccccc2)CC1O` (centres undefined) displayed a melting point of 90.1 °C.

`COc1ccc(C(=O)c2ccc(Br)s2)cc1` had a melting point of 97 to 99 °C.

`Cc1ccc(S(=O)(=O)OCCc2cccc3[nH]cc(S(=O)(=O)c4ccccc4)c23)cc1` registered a melting point of 58 to 60 °C.

The compound `CC(C)(C)OC(=O)C(Cl)=CC1C(C(=O)O)C1(C)C` (centres undefined) had a melting point of 65 °C.

Compound `CSCCC(NCc1ccccc1N)C(=O)O` (centres undefined) displayed a melting point of 198 °C.

For `Cc1ccc(-c2ccccc2)cc1Cn1c(Cl)nn(C)c1=O`, the melting point stood at 116 °C.

For the compound `OCCCN1CCN(c2ccccc2OCC(F)(F)F)CC1`, the melting point is 94 to 96 °C.

The compound `COc1ccc(S(=O)(=O)n2c(CCCC(=O)O)cc3nc(Cl)ccc32)cc1` showed a melting point of 189 °C.

`COc1cc(F)ccc1-c1cncc(OC2SCC(O)C(O)C2O)c1` (centres undefined) yielded a melting point of 218 to 228 °C.

`COc1cc(C(F)(F)F)cc(OC)c1C(=O)CCl`: the melting point was 120 to 122 °C.

In turn, `Nc1cc(-n2cc(C(=O)O)c(=O)c3cc([N+](=O)[O-])c(F)c(F)c32)c(F)cc1F` had a melting point of 142 to 143 °C.

`CCCNC(=O)c1nc(-c2ccccc2)c(-c2ccc(=O)n(Cc3ccccc3)n2)s1` gave a melting point of 120 to 121 °C.

Take `CCc1noc(NS(=O)(=O)c2ccccc2)c1Br`: the melting point fell in the range of 90 to 93 °C.

For the compound `O=C(Nc1cccc2c(=O)cc(C(=O)O)oc12)c1ccc2c(c1)CCC(CCCc1ccccc1)O2` (centres undefined), the melting point is 325 to 326 °C.

In turn, `Cc1ccc(S(=O)(=O)OC[C@@H]2COc3ccc4scc(Cl)c4c3O2)cc1` gave a melting point of 169 to 170 °C.

`CC(C)(C)c1cc(CSCCC(=O)NCCCCCCNC(=O)CCSCc2cc(C(C)(C)C)c(O)c(C(C)(C)C)c2)cc(C(C)(C)C)c1O` had a melting point of 126 to 130 °C.

The compound `CS(=O)Cc1ccc(Cl)nc1` (centres undefined) registered a melting point of 72 to 74 °C.

`COC(=O)c1cc2c(Cl)cc(C(=O)OC)c(Cl)c2c(Cl)c1Cl` returned a melting point of 140 to 142 °C.

`Cc1c(-c2ccccc2)nnc(N(C)C)c1C` yielded a melting point of 86 to 89 °C.

Regarding `CNC(=O)c1cnn(C(C)(C)C)c1C#N`, the melting point is 162 to 165 °C.

Turning to `CC(Oc1c(Cl)cccc1Cl)C(N)=O` (single isomer, unassigned; (-)), the melting point was in the range of 192 to 193 °C.

In turn, `CN(C)CCOc1c2c(nc3ccccc13)C(C)(C)OC2` registered a melting point of 92 to 93 °C.

As to `Oc1nc(S)nc2c(-c3ccccc3)cnn12`, the melting point is 251 °C.

As to `CC(=O)N1CC(C)(C)c2cc3nc[nH]c3cc21`, the melting point lay within 214 to 216 °C.

Compound `CCOC(=O)Cn1c(CC)nc2c(O)cccc21` showed a melting point of 148 to 150 °C.

Consider `CN1CC(=O)Nc2cccc(I)c2C1=O`, for which the melting point was 214 to 217 °C.

Compound `O=c1[nH]c2cc(F)ccc2c(=O)n1S(=O)(=O)c1ccc(Cl)cc1` came in with a melting point greater than 200 °C.

Take `O=C(O)CCNc1cccc(CNC(=O)C2Cc3ccccc3N2S(=O)(=O)c2ccc(-c3cccc(C(F)(F)F)c3)cc2)c1` (centres undefined): the melting point was found to be 85 °C.

`COc1ccc(S(=O)(=O)N2Cc3cc4c(cc3CC2C(=O)NO)OCO4)cc1` (centres undefined) had a melting point of 166 °C.

Consider `COC(=O)CCCOc1cc([N+](=O)[O-])c(CO)cc1OC`, for which the melting point amounted to 100 °C.

Turning to `CCc1[nH]n(C2CCCC2)c2nc(Cc3ccc(OC)cc3)nc(=O)c1-2`, the melting point was in the range of 172 to 173 °C.

`CCSc1ccc(-c2ncco2)c2c1C(=O)CC(C)C2` (centres undefined): the melting point lay in the range of 111 to 113 °C.

Compound `COC(=O)c1cc(Cl)cc(CC=O)c1O` gave a melting point of 49 to 59 °C.

On to `COc1ccc(/C=C/C(=O)C2C(=O)CC(c3ccc(OC)cc3)C([N+](=O)[O-])C2c2ccco2)cc1` (centres undefined), for which the melting point turned out to be 192 °C.

On to `Cc1c(C(=O)c2ccccc2F)n(N2C(=O)c3ccccc3C2=O)c2ccccc12`, for which the melting point is 197 to 199 °C.

On to `Cc1cc(-c2cc(C(F)(F)F)nn2-c2ccc(S(C)(=O)=O)cc2)ccc1-c1cocn1`, for which the melting point lay within 148 to 150 °C.

In turn, `CCOC(=O)CCc1ccc2cc(O)ccc2c1` registered a melting point of 90 to 91 °C.

In the case of `COc1cc(OCc2ccccn2)ccc1/C=C/c1cc(/C=C/c2ccc3[nH]cnc3c2)n[nH]1`, the melting point lay in the range of 135 to 142 °C.

For `NC1C(O)C(CO)OC1n1ccc(=O)[nH]c1=O` (centres undefined), the melting point lay in the range of 197 to 199 °C.

Take `O=C(O)c1ccc(OCc2ccccc2OCc2ccccc2)cc1`: the melting point lay in the range of 177 to 179 °C.

In the case of `COc1ccccc1S(=O)C1CC(=O)N1CC(=O)CCc1ccccc1` (centres undefined), the melting point lay in the range of 129 to 131 °C.

The compound `CC#Cc1ncn2c1[C@@H]1CCCN1C(=O)c1c(Cl)cccc1-2` registered a melting point of 208 to 209 °C.

With `O=C(OCCn1cnc2c(Cl)nc3ccccc3c21)c1ccccc1`, the melting point turned out to be 186 °C.

Take `CC(C)(C)c1cc(SCCc2nnco2)cc(C(C)(C)C)c1O`: the melting point fell in the range of 87.5 to 89 °C.

Take `O=c1oc2ccccc2c(O)c1CCCCC1CCCCC1`: the melting point lay in the range of 160 to 161 °C.

The compound `c1ccc(COc2ccc(-c3nc(COc4ccc(CCCn5ccnc5)cc4)co3)cc2)cc1` gave a melting point of 133 to 134 °C.

In turn, `Cc1cc(Br)c([N+](=O)[O-])c(Br)n1` gave a melting point of 118 to 120 °C.

For the compound `CCOC(=O)COc1c(F)cc(S(=O)(=O)CCNS(=O)(=O)c2ccc(Cl)cc2)cc1F`, the melting point is 166 to 167 °C.

`COc1ccc2[nH]cc(/C(C#N)=C/c3cccc(C(N)=O)c3)c2c1` came in with a melting point of 234 °C.

For `O=C(Nc1cccc(S(=O)(=O)c2ccccn2)c1)C(O)(C(F)(F)F)C(F)(F)F`, the melting point lay within 264 to 267 °C.

`Cc1nc2c(N)nc3ccccc3c2n1CCCNC(=O)C1CCCCC1` registered a melting point of 234 to 235 °C.

The compound `CCCCOCCOC(=O)C1=C(C)NN=C(CC)C1c1cccc([N+](=O)[O-])c1` (centres undefined) showed a melting point of 122 °C.

With `COc1ccc(-c2nnc3c4ccccc4c(Nc4ccc(N)cc4)nn23)cc1`, the melting point was determined as 295 °C.

Turning to `COc1ccc(Cn2nnnc2C(=O)Nc2cc(C#N)cc(NC(=O)c3nnnn3Cc3ccc(OC)cc3)c2Cl)cc1`, the melting point fell in the range of 223 to 225 °C.

Turning to `CCCCCCOc1ccc(CBr)c2c(OCCCCCC)ccc(CBr)c12`, the melting point is 105 to 107 °C.

On to `CCCOc1ccc(-c2ccc(OCC(CN3C(=O)NC(C)(C)C3=O)N(O)C=O)cc2)cc1` (centres undefined), for which the melting point fell in the range of 158 to 160 °C.

For the compound `N#CCc1ccnc2c(NC(=O)c3c(Cl)cccc3Cl)cccc12`, the melting point lay in the range of 234 to 236 °C.

Values taken from a melting point compilation (Tetko et al.; mined from patent text by program, amines drawn as free bases though some values may be those of a salt).
